Residue numbers refer to the chain shown, from its start. Where two headings read alike, the source gives them in different places.
Assays:
[1] = target: T1, human β-glucocerebrosidase (GCase) (Homo sapiens, UniProt P04062, R534H); assay: Purified recombinant human GCase inhibition in vitro; type: biochemical; conditions: for Ki: purified recombinant enzyme (Cerezyme), 4-MU glucopyranoside substrate
T1 construct: purchased Genzyme (Genzyme Japan, Tokyo, Japan) / Sanofi Genzyme, Cambridge, MA, USA Cerezyme
T1 sequence (P04062 40-536 R534H): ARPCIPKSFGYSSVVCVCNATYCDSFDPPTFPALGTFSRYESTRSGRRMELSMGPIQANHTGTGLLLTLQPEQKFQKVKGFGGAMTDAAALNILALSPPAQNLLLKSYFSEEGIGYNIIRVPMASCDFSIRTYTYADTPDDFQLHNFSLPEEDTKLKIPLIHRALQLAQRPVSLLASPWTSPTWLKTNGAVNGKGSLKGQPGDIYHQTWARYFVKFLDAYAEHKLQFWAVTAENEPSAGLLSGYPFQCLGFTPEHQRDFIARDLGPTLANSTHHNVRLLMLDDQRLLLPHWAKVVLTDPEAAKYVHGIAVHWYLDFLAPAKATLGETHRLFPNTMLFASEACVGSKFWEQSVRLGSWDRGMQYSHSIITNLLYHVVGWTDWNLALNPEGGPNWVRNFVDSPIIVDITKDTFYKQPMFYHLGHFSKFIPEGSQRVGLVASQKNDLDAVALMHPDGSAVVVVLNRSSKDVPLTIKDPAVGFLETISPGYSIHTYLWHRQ
Method: Comparative assessment of the inhibition abilities of 1–4 against human lysosomal glycosidases in cell lysates (in vitro enzyme assay; see Experimental Section) confirmed the selectivity pattern previously observed for the commercial enzymes: whereas GCase was responsive to μM concentrations of the sp^2-iminosugars, the activity of lysosomal α-glucosidase, α- and β-galactosidases, α- and β-mannosidases, and hexosaminidase was not affected at concentrations of up to 200 μM. The corresponding Ki values were determined at pH 7 and 5 using purified recombinant human GCase and 4-methylumbelliferone (4-MU)-conjugated […] as the substrate (Table 2).
GCase activities were determined as above using purified human GCase, obtained from Genzyme (Genzyme Japan, Tokyo, Japan) in 0.1 M citrate buffer at pH 5 or pH 7 and 4-methylumbelliferone (4-MU)-conjugated β-D-glucopyranoside as the substrate. The reactions were terminated by adding 0.2 mL of 0.2 M glycine sodium hydroxide buffer (pH 10.7). The liberated 4-methylumbelliferone was measured in a black-well plate with a Perkin Elmer Luminescence Spectrometer, Waltham, MA, USA (excitation wavelength: 340 nm; emission: 460 nm).

[2] = pKa determination; type: physicochemical
[3] = target: T2, GCase (Homo sapiens, UniProt P04062); assay: GCase activity in cultured healthy human fibroblasts; type: cell-based; conditions: 5 days culture
T2 construct: endogenous in cells; host or cells: normal human skin fibroblasts
T2 sequence (P04062 40-536): T1 sequence (P04062 40-536 R534H) with H495R
Method: For that purpose, cells were cultured for 5 days in the absence and in the presence of various concentrations of the compounds, then lysed, and the enzyme activity was determined using 4-methylumbelliferyl β-D-glucopyranoside as substrate. Higher GCase activities in the lysate indicate that larger amounts of the protein are present and that it is functional.
(§1) Normal and Gaucher disease patients’ skin fibroblasts were cultured in Dulbecco modified Eagle’s medium (WAKO, Richmond, VA, USA) supplemented with 10% fetal bovine serum (Nichirei Biosci. Inc., Tokyo, Japan) at 37 °C in 5% CO2. For measurement of chaperone activities, fibroblasts were plated onto 35 mm dishes at 50,000 cells per dish. After 24 h incubation, the medium with the indicated concentrations of compound was applied and cells were cultured for 96 h. Then, the lysates in 0.1% Triton-X100/distilled H2O were collected from the cells and assayed for lysosomal GCase as described above. To measure the cytotoxic effect of the compounds, normal human fibroblasts were plated onto 35 mm dishes at 15,000 cells per dish and incubated overnight. Then, the medium was changed with or without compounds. After 24 h incubation, the supernatant of the cells was collected and measured by the lactate dehydrogenase assay (WAKO, Richmond, VA, USA). All the cell lines used were tested for mycoplasma contamination before conducting the chaperone and toxicity assays.

[4] = target: T3, N188S/G183W mutant GCase (Homo sapiens, UniProt P04062, N227S); assay: Chaperone test in N188S/G183W type 3 Gaucher patient fibroblasts; type: cell-based; conditions: N188S/G183W Gaucher fibroblasts
T3 construct: endogenous in cells; host or cells: skin fibroblasts of N188S/G183W type 3 Gaucher patients
T3 sequence (P04062 40-536 N227S): T1 sequence (P04062 40-536 R534H) with N188S, H495R
Description: To test the chaperoning capabilities, Gaucher fibroblasts from patients hosting the adult neuronopathic (type 3) Gaucher disease-associated N188S/G183W mutant GCase were employed. It is worth mentioning that the neuronopathic clinical subtypes of Gaucher disease remain currently at orphan status, given the inability of the recombinant enzyme used in enzyme replacement therapy or the glucosylceramide synthase inhibitor Zavesca® used in substrate reduction therapy to cross the blood–brain barrier. This mutation is located in the catalytic domain (domain III) of GCase and has been previously found to be responsive to sp^2-iminosugar-type chaperones. […] Yet, the activity trend as a function of the chaperone concentration was starkly different between them. Thus, the nonreducing representatives 3 and 4 reached the maximum chaperoning effect at 200 nM and as low as 2 nM concentration, respectively, as compared with 20 and 2 μM for the reducing homologues 1 and 2.
as §1

[5] = test system: L444P mutant GCase; parameters: method as in PMID 22512696; conditions: homozygous L444P Gaucher lymphoblasts; cited from earlier work
[6] = test system: L444P mutant GCase; conditions: homozygous L444P Gaucher fibroblasts; cited from earlier work
[7] = pH 5, read-out: Ki human GCase, pH 5
[8] = pH 7, read-out: Ki human GCase, pH 7

Row | Ki [1, 7] [µM] | Ki [1, 8] [µM] | pKa [2] | GCase activity in healthy human fibroblasts over the whole range of concentrations [3] | concentration of maximum chaperoning effect [4] [µM] | SMILES | other results
1 | 54.4 ± 0.38 | 15.1 ± 0.97 | 8.9 | essentially unaltered | 20 | CCCCCCCCN=C1OCC2C(O)C(O)C(O)C(O)N12 (stereo not shown) [Compound 1] | –
2 | 1.05 ± 0.068 | 0.26 ± 0.013 | 8.3 | essentially unaltered | 2 | CCCCCCCCN=C1SCC2C(O)C(O)C(O)C(O)N12 (stereo not shown) [Compound 2] | fold enhancement of GCase inhibition potency upon replacement of O-6 by sulfur, pH 5 ([1]; pH 5, 2 vs 1, 4 vs 3): 52 fold; fold enhancement of GCase inhibition potency upon replacement of O-6 by sulfur, pH 7 ([1]; pH 7, 2 vs 1, 4 vs 3): 58 fold
3 | – | – | – | – | – | CCCCCCCCCN[C@H]1[C@H](O)[C@@H](O)[C@H](O)[C@@H](O)[C@@H]1OCCCCCCCCC [Compound 19, (1R,2S,3R,4S,5S,6R)-5-(nonylamino)-6-(nonyloxy)cyclohexane-1,2,3,4-tetraol] | mutant GCase activity enhancement at 10 pM [5]: 40%
4 | 6.3 ± 0.16 | 1.7 ± 0.066 | 9.3 | – | 0.2 | CCCCCCCC/N=C1/OC[C@@H]2[C@@H](O)[C@H](O)[C@@H](O)CN12 [Compound 3] | fold stronger GCase inhibition of nonreducing vs reducing partner ([1]; 3 vs 1, 4 vs 2): about 10 fold; GCase activity in lysates of healthy human fibroblasts at 20 μM ([3]; 20 μM): virtually full inhibition; GCase activity in lysates of healthy human fibroblasts at higher concentrations ([3]; concentrations higher than 20 nM): significantly inhibited; concentration over which chaperone/inhibitor balance is unfavorable (net decrease in mutant enzyme activity vs control) [4]: over 20 μM
5 | – | – | – | – | – | CCCCCCCCCC(=O)OC[C@H](C[C@H]1NC[C@@H](O)[C@H](O)[C@H]1O)OC(=O)CCCCCCCCC [Compound 23] | mutant GCase activity enhancement at 50 nM [6]: 100%
